Read-outs that look alike come from different tables or passages of the source.
Experiments:
[1] = system: A549; experiment: Cell viability, MTT assay at 48 h; format: cell-based; conditions: Homo sapiens, A549, 48 h, read-out: EC50 ± SEM, tumor cells A549
Protocol: (§1) Human MCF7 breast adenocarcinoma (#HTB-22) and human A549 carcinoma (#CCL-85) cell lines, non-tumor human breast (MCF10A, #CRL-10317) and lung (BEAS-2B, #CRL-9482) cells were obtained from American Type Culture Collection (ATCC, Bethesda, MD). MCF7 cells were cultured in DMEM medium (Gibco Thermo Scientific, Waltham, MA; #10,565,018), A549 in HAM’s F12 medium (Gibco Thermo Scientific; #11,765,054), and BEAS-2B in RPMI-1640 medium (Gibco Thermo Scientific; # 61,870,010), all supplemented with 10% v/v fetal bovine serum (FBS; Sigma, St. Louis, MO; #F4135) and 1% v/v penicillin–streptomycin (Sigma; #P4458). MCF10A cells were cultured in DMEM/F12 medium (Gibco Thermo Scientific; #31,331,028) supplemented with 5% v/v horse serum (Sigma; #H1270) and 1% v/v penicillin–streptomycin, 20 ng/mL epidermal growth factor (Sigma, #E4127), 10 µg/mL insulin (Sigma, #I3536), […] hydrocortisone (Sigma, #H0888), 100 ng/mL cholera toxin (Sigma, #C8052). Cells were kept in a humidified incubator at 37 °C with 5% CO2.
(§2) Cell growth was determined using the MTT assay at 48 h. On day 1, 25,000 cells/well were seeded into 96-well plates in a volume of 100 μL. On day 2, the various drug concentrations (1 μM–100 μM) were added. In all experiments, the various drug solvents (EtOH, Sigma, # E7148; DMSO, Sigma, # D8418) were added to each control to evaluate possible cytotoxicity of the solvent. After the established incubation time with drugs (48 h), MTT (0.5 mg/mL, Sigma # M2003) was added to each well, and after 3–4 h incubation at 37 °C, the supernatant was removed. Formazan crystals were solubilized using 100 μl of DMSO/EtOH (1:1) and absorbance values at 570 and 630 nm were determined on the microplate reader Victor 3 from PerkinElmer Life Sciences (Waltham, MA).

[2] = system: BEAS-2B; experiment: Cell viability, MTT assay at 48 h; format: cell-based; conditions: Homo sapiens, read-out: EC50 ± SEM, normal cells BEAS-2B
Protocol: as §1, §2

[3] = system: MCF10A; experiment: Cell viability, MTT assay at 48 h; format: cell-based; conditions: Homo sapiens, MCF-10A, read-out: EC50 ± SEM, normal cells MCF10A
Protocol: as §1, §2

[4] = system: MCF7; experiment: Cell viability, MTT assay at 48 h; format: cell-based; conditions: Homo sapiens, MCF7, 48 h, read-out: EC50 ± SEM, tumor cells MCF7
Protocol: as §1, §2

[5] = system: caspase 9 in MCF7 cells; experiment: Caspase 9 activity, fluorimetric; format: cell-based, human; conditions: MCF7, 2 h, 50 µM
Protocol: Activation of caspase 3, caspase 7 and caspase 9 was measured using the Caspase 3/7 Fluorescence Assay kit (Cayman Chemical, Ann Arbor, MI; #10,009,135) and the Caspase 9 fluorimetric assay kit (Enzo Life Science, Roma, Italy; #ALX-850-224). The results were expressed as nmoles of the hydrolyzed substrate of each caspase/mg cellular proteins, according to a previously set titration curve.

[6] = system: GRP78, ATF6, IRE1, PERK in MCF7 cells; experiment: ER stress markers, qRT-PCR and immunoblotting; format: cell-based, human; conditions: MCF7, 2 h, 50 µM
Protocol: 1 μg total RNA was reverse-transcribed using the iScript Reverse Transcription Supermix kit (Bio-Rad Laboratories, Hercules, CA; #1,708,840), according to the manufacturer’s instruction. 25 ng cDNA were amplified with 10 μL IQ™ SYBR Green Supermix (Bio-Rad Laboratories, # 1708880B05). Primers were designed with the qPrimer Depot software (http://primerdepot.nci.nih.gov/). qRT-PCR was carried out with a CFX96™ Real-Time Detector System (Bio-Rad Laboratories). Cycling conditions were: 30 s at 95 °C, followed by 40 cycles of denaturation (15 s at 95 °C), annealing/extension (30 s at 60 °C). The same cDNA preparation was used to quantify the genes of interest and the housekeeping gene S14, used to normalize gene expression. The relative quantitation of each sample was carried out using the Gene Expression Quantitation software (Bio-Rad Laboratories). Results were expressed in arbitrary units. For each gene, the expression in untreated cells was assumed to be “1”.
Cells were rinsed with ice-cold lysis buffer (50 mM, Tris, 10 mM EDTA, 1% v/v Triton-X100), supplemented with the protease inhibitor cocktail set III (80 μM aprotinin, 5 mM bestatin, 1.5 mM leupeptin, 1 mM pepstatin; Sigma, # 535,140), 2 mM phenylmethylsulfonyl fluoride (Sigma: #P7626) and 1 mM Na3VO4, (Sigma; #S6508) then sonicated and centrifuged at 13,000 × g for 10 min at 4 °C. 20 μg protein extracts were subjected to SDS–PAGE and probed with the antibodies for: GRP78 (#ab21685), ATF6 (#ab122897), IRE-1 (#ab37073), PERK (#ab65142), actin (#ab1801) (all from Abcam, Cambridge, UK), followed by a peroxidase-conjugated secondary antibody (Bio-Rad Laboratories). The membranes were washed with Tris-buffered saline-Tween 0.1% v/v solution, and the proteins were detected by enhanced chemiluminescence (Bio-Rad Laboratories, #1,705,061). The densitometric analysis was performed using the ImageJ software (https://imagej.nih.gov/), calculating the ratio protein of interest/actin band density, putting actin band density as 1 relative unit in each condition. Densitometric analysis and whole blots are included as Supporting Information.

[7] = system: MCF7 and A549 cells; experiment: Whole cell ROS, DCFDA-AM probe; format: cell-based, human; conditions: MCF7 and A549, 2 h, 50 µM
Protocol: (§3) Intramitochondrial reactive oxygen species (ROS) were measured using the MitoSOX fluorescent probe (Invitrogen ThermoScientific, # M36008), according to the manufacturer’s instructions. For total ROS, cells were incubated with 5 µmol/L of 5-(and-6)-chlorometyl-20,70-dichlorodihydro-fluorescein diacetate-acetoxymethyl ester (DCFDA-AM, Sigma, #21,884), as described by Riganti et al. 2015 [21]. The results are expressed as nmoles/mg mitochondrial or cellular proteins, respectively.

[8] = system: A549 cells; experiment: Mitochondrial depolarization, JC-1 staining; format: cell-based, human; conditions: A549, 2 h, 50 µM
Protocol: (§4) Staining with the JC-1 fluorescent probe (Biotium Inc., Freemont, CA; #30,001-30001-T) was performed as described in Riganti et al. 2015 [21]. Fluorescence units were used to calculate the percentage of green-fluorescent (i.e., depolarized) mitochondria vs red-fluorescent (i.e., polarized) mitochondria.

[9] = system: MCF7 cells; experiment: Mitochondrial depolarization, JC-1 staining; format: cell-based, human; conditions: MCF7, 2 h, 50 µM
Protocol: as §4

[10] = molecular target: sigma-2 receptors (Homo sapiens, UniProt Q5BJF2); conditions: read-out: Sigma-2 Affinity Ki; cited from earlier work
[11] = molecular target: T1, P-gp (Homo sapiens, UniProt P08183); conditions: cited from earlier work
T1 construct: expressed in transfected cells; host or cells: MDCK-MDR1

[12] = system: A549 cells; experiment: Mitochondrial ROS, MitoSOX staining; format: cell-based, human; conditions: A549, 2 h, 50 µM
Protocol: as §3

[13] = system: MCF7 cells; experiment: Mitochondrial ROS, MitoSOX staining; format: cell-based, human; conditions: MCF7, 2 h, 50 µM
Protocol: as §3

[14] = system: MCF7; set-up: method as in doi:10.1039/C5RA19857G; conditions: MTT; read-out: EC50, tumor cells MCF7; cited from earlier work
[15] = system: A549; set-up: method as in doi:10.1039/C5RA19857G; conditions: MTT; read-out: EC50, tumor cells A549; cited from earlier work

Chain of sigma-2 receptors (Q5BJF2 whole entry): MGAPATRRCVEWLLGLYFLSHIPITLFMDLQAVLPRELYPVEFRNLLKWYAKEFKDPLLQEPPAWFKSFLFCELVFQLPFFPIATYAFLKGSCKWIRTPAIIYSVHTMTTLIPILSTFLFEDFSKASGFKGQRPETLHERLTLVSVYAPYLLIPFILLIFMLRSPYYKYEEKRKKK
T1 sequence (P08183 whole entry): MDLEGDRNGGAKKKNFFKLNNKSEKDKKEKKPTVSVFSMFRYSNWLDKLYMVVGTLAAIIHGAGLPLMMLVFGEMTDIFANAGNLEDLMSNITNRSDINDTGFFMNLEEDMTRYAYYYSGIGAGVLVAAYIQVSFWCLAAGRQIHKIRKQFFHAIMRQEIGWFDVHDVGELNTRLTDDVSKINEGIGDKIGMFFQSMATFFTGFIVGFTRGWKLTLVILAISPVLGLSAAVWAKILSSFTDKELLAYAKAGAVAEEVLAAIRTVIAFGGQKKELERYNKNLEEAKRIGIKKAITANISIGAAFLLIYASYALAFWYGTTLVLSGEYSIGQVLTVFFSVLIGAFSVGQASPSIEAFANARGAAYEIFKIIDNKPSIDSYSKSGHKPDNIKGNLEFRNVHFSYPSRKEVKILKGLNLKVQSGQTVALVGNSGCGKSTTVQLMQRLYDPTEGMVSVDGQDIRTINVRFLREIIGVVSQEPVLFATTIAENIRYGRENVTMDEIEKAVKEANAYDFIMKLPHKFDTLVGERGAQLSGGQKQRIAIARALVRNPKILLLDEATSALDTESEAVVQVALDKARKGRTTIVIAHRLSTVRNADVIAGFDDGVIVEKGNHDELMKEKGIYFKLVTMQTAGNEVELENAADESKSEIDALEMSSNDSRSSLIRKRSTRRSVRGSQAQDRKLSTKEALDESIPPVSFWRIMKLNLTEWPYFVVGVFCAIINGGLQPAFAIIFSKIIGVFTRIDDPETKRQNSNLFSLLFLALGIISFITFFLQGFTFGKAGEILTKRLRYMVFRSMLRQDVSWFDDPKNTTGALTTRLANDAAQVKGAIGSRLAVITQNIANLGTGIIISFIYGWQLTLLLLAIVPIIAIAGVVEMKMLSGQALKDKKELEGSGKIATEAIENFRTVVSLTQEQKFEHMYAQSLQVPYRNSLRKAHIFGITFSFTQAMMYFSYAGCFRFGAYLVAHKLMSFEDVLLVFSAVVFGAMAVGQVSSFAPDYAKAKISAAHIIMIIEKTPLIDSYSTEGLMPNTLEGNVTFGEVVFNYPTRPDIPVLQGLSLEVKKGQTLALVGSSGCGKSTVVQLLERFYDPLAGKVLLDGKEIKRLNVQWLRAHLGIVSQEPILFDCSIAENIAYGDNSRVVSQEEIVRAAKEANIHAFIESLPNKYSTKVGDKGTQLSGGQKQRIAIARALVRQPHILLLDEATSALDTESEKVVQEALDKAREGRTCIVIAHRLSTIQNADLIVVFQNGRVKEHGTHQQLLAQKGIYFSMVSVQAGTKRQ

Which EC50 [1] does the source give for CN(C)C(=S)N/N=C1\C(=O)Nc2ccccc21 [ACThio1, (Z)-N,N-dimethyl-2-(2-oxoindolin-3-ylidene)hydrazinecarbothioamide] here?
The EC50 was 4.08 ± 0.4 µM.

What about the EC50 [2] of the same molecule?
Its EC50 is 3.39 ± 0.8 µM.

What about the EC50 [3] of the same molecule?
Its EC50 is 2.09 ± 0.4 µM.

And the EC50 [4]?
The EC50 was 5.88 ± 1.1 µM.

What about the “Rank order of caspase 9 activation” value [5] of the same molecule?
The value was “FA4 > MLP44 > PS3 > ACThio1”.

What about the “Expression of ER stress markers GRP78, ATF6, IRE1, PERK” value (“Expression of ER stress markers GRP78” below) [6] of the same molecule?
The value was “no or negligible effect”.

And the “ROS levels in whole cells (DCFDA-AM)” value [7]?
The value was “not significantly increased”.

And the “Mitochondrial depolarization (JC-1 staining)” value (“Mitochondrial depolarization” for short) [8]?
Its value is “did not produce any detectable changes in mitochondrial polarization”.

And the “Mitochondrial depolarization” value [9]?
The value was “did not produce any detectable changes in mitochondrial polarization”.

And the Ki [10]?
Its Ki is greater than 10 µM.

And the “P-gp Activity EC50” value [11]?
Its value is “Not Active^d”.

With COc1cc2c(cc1OC)CN(CCCCN1C(=O)/C(=N\NC(=S)N(C)C)c3ccccc31)CC2 [MLP44, (Z)-2-(1-(4-(6,7-Dimethoxy-3,4-dihydroisoquinolin-2(1H)-yl)butyl)-2-oxoindolin-3-ylidene)-N,N-dimethylhydrazinecarbothioamide] as the molecule, how does the EC50 [2] read?
The EC50 was 11.9 ± 2.1 µM.

And the EC50 [3]?
The EC50 was 24.2 ± 0.8 µM.

And the “Rank order of caspase 9 activation” value [5]?
Its value is “FA4 > MLP44 > PS3 > ACThio1”.

And the “Expression of ER stress markers GRP78” value [6]?
Its value is “modest effects”.

And the “Mitochondrial ROS (MitoSOX)” value [12]?
Its value is “increased”.

What about the “Mitochondrial ROS (MitoSOX)” value [13] of the same molecule?
The value was “increased”.

What about the “ROS levels in whole cells (DCFDA-AM)” value [7] of the same molecule?
The value was “variable”.

What about the “Mitochondrial depolarization” value [8] of the same molecule?
The value was “totally insensitive”.

And the “Mitochondrial depolarization” value [9]?
Its value is “strong depolarization”.

And the EC50 [14]?
The EC50 was 24.6 µM.

What about the EC50 [15] of the same molecule?
The EC50 was 10.4 µM.

What about the Ki [10] of the same molecule?
The Ki was 0.0341 µM.

And the EC50 [11]?
Its EC50 is 3.04 µM.

Which EC50 [2] does the source give for CN(C)C(=S)N/N=C1\C(=O)N(CCCCN2CCN(C3CCCCC3)CC2)c2ccccc21 [PS3, (Z)-2-[1-[4-(4-cyclohexylpiperazin-1-yl)butyl]-2-oxoindolin-3-ylidene]-N,N-dimethylhydrazinecarbothioamide] here?
Its EC50 is 6.22 ± 1.3 µM.

What about the EC50 [3] of the same molecule?
The EC50 was 3.03 ± 0.6 µM.

And the “Rank order of caspase 9 activation” value [5]?
The value was “FA4 > MLP44 > PS3 > ACThio1”.

And the “Expression of ER stress markers GRP78” value [6]?
Its value is “modest effects”.

What about the “ROS levels in whole cells (DCFDA-AM)” value [7] of the same molecule?
Its value is “not significantly increased”.

What about the “Mitochondrial depolarization” value [8] of the same molecule?
Its value is “did not produce any detectable changes in mitochondrial polarization”.

And the “Mitochondrial depolarization” value [9]?
The value was “did not produce any detectable changes in mitochondrial polarization”.

And the EC50 [14]?
The EC50 was 1.81 µM.

What about the EC50 [15] of the same molecule?
Its EC50 is 2.2 µM.

And the Ki [10]?
The Ki was 0.0354 µM.

What about the EC50 [11] of the same molecule?
Its EC50 is 2.83 µM.

From PMC10661773, “Cytotoxic pathways activated by multifunctional thiosemicarbazones targeting sigma-2 receptors in breast and lung carcinoma cells” (Pharmacological Reports, 2023)
